Assays:
Format in all cases: biochemical
CYP2B1 [1] = biological target: T1, CYP2B1 (Rattus norvegicus, UniProt P00176); test: Michaelis-Menten fit in rat liver microsomes, HPLC-fluorescence of resorufin; details: NADPH regeneration system, 0.05 M Tris-HCl pH 7.4, 15 min, 5 μM α-BNF added to block CYP1A1/2
T1 construct: native enzyme in rat liver microsomes; benzyloxyresorufin O-dealkylation (BROD) read-out
T1 sequence (P00176 1-491): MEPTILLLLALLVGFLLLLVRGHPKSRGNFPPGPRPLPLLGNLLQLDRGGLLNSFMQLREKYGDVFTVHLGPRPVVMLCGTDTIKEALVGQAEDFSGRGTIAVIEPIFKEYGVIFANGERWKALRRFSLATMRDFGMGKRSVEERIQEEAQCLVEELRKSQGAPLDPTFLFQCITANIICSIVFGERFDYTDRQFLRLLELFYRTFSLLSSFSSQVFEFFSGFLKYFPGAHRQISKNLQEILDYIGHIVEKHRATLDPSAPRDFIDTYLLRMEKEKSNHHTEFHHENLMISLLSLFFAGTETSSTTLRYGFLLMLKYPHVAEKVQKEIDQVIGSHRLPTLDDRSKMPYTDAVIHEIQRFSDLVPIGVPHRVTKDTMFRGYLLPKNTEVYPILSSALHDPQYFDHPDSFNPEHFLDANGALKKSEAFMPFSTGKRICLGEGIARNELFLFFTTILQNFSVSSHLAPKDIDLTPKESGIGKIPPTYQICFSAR

CYP2D2 = biological target: T2, CYP2D2 (Rattus norvegicus, UniProt P10634); test: Michaelis-Menten fit in rat liver microsomes, HPLC-fluorescence of dextrorphan; details: NADPH regeneration system, 0.05 M Tris-HCl pH 7.4, 30 min
T2 construct: gene Cyp2d26; native enzyme in rat liver microsomes; dextromethorphan to dextrorphan read-out
T2 sequence (P10634 1-500): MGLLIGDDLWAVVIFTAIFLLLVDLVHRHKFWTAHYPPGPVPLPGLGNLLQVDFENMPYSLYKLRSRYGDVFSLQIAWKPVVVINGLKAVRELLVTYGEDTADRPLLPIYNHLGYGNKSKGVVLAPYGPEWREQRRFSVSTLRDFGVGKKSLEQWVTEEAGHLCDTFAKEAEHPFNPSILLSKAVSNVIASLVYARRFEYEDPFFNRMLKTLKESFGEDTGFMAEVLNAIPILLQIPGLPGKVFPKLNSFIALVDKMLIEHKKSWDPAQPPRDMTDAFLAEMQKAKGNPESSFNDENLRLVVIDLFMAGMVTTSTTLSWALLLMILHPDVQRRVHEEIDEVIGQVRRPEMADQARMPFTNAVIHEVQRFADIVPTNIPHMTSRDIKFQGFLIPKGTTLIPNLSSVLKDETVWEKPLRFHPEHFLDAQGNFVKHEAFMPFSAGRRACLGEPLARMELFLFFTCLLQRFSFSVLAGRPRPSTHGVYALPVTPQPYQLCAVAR

CYP3A1/2 = system: T3, CYP3A1/2; test: probe substrate conversion in rat liver microsomes, HPLC-MS/MS; details: testosterone at about Km, NADPH regeneration system, 0.05 M Tris-HCl pH 7.4, 30 min; read-out: IC 50 / Positive control
T3 construct: native enzymes in rat liver microsomes; testosterone 6beta-hydroxylation read-out
Text: probe substrate conversion in rat liver microsomes, HPLC-MS/MS on CYP3A1/2

CYP2B1 [2] = biological target: T1, CYP2B1; test: probe substrate conversion in rat liver microsomes, HPLC-fluorescence; details: benzyloxyresorufin at about Km, 5 μM α-BNF added to block CYP1A1/2, NADPH regeneration system, 0.05 M Tris-HCl pH 7.4, 15 min; read-out: IC 50 / Positive control
Text: probe substrate conversion in rat liver microsomes, HPLC-fluorescence on CYP2B1

CYP1A1/2 = system: T4, CYP1A1/2; test: as above; details: ethoxyresorufin at about Km, NADPH regeneration system, 0.05 M Tris-HCl pH 7.4, 15 min; read-out: IC 50 / Positive control
T4 construct: native enzymes in rat liver microsomes; ethoxyresorufin O-deethylation (EROD) read-out
Text: probe substrate conversion in rat liver microsomes, HPLC-fluorescence on CYP1A1/2

## O=c1ccc2nc3ccc(OCc4ccccc4)cc3oc-2c1 [BR]
CYP2B1 [1]
  Km: (B) benzyloxyresorufin (BR) (CYP2B1)

## COc1ccc2c(c1)[C@]13CCCC[C@@H]1[C@H](C2)N(C)CC3 [DOM]
CYP2D2
  Km: (D) dextromethorphan (DOM) (CYP2D2)

## CC(=O)N1CCN(c2ccc(OCC3COC(Cn4ccnc4)(c4ccc(Cl)cc4Cl)O3)cc2)CC1 (centres unmarked) [KCZ]
CYP3A1/2
  IC50: 470 nM

## CC(C)(C(=O)c1cccnc1)c1cccnc1 [MTY]
CYP2B1 [2]
  IC50: 4310 nM

## O=c1cc(-c2ccccc2)oc2c1ccc1ccccc12 [α-BNF]
CYP1A1/2
  IC50: 1820 nM

— article PMC12415777, “Dose-dependent modulation of hepatic cytochrome P450 enzymes by tenvermectin: implications for medication safety and combination therapy” (Frontiers in Veterinary Science, 2025)
